Assay results reported in PubChem BioAssay (NCI).
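Cultured in 96-well plates, cells were exposed to test compound for 48 hours across five concentrations. TGI: concentration producing complete growth inhibition.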

How the values were obtained:
Test in all cases: growth of human tumour cells (NCI), 48 h
SK-OV-3 ovarian = test system: SK-OV-3 ovarian
MDA-MB-231 breast = test system: MDA-MB-231 breast
SK-MEL-2 melanoma = test system: SK-MEL-2 melanoma
A498 renal = test system: A498 renal
LOX IMVI melanoma = test system: LOX IMVI melanoma
UACC-257 melanoma = test system: UACC-257 melanoma
OVCAR-8 ovarian = test system: OVCAR-8 ovarian
SNB-75 CNS = test system: SNB-75 CNS
MALME-3M melanoma = test system: MALME-3M melanoma
BT-549 breast = test system: BT-549 breast

Structure (SMILES) | TGI (SK-OV-3 ovarian) [µM] | TGI (MDA-MB-231 breast) [µM] | TGI (SK-MEL-2 melanoma) [µM] | TGI (A498 renal) [µM] | TGI (LOX IMVI melanoma) [µM] | TGI (UACC-257 melanoma) [µM] | TGI (OVCAR-8 ovarian) [µM] | TGI (SNB-75 CNS) [µM] | TGI (MALME-3M melanoma) [µM] | TGI (BT-549 breast) [µM]
O=C(CN1CCN(C(=O)OCc2ccccc2)CCN(CC(=O)N2CCCCC2)CCN(C(=O)OCc2ccccc2)CC1)N1CCCCC1 | > 52.7 | 33.7 | 40.2 | 47.1 | 28.1 | 9.75 | 33.8 | 16.5 | 23.5 | > 50.5
O=C1C2C=CC1C1C(=O)OC(=O)C21 (stereo not given) | > 100 | > 100 | > 100 | > 100 | > 100 | > 100 | > 100 | > 100 | > 100 | > 100
Cc1ccc(/C=C/C(=O)c2c([O-])on[n+]2-c2ccccc2)cc1 | > 100 | > 75.2 | 5.39 | 17.9 | 3.74 | 16 | 4.05 | 4.87 | 98.3 | 6.09
Cc1cc2[nH]c3c(C#N)c(-c4ccccc4)c(N=Nc4cccc(C(F)(F)F)c4)c(=O)n3c2cc1C | > 100 | > 100 | > 100 | > 100 | > 100 | > 100 | > 100 | > 100 | > 100 | > 100
